Measurements: ChEMBL document CHEMBL1201862, “PubChem BioAssay data set” (2004)
Values belong to the compound of their own block, whether it stands above or below them. Activity calls are given as the source filed them.

What was measured:
[1] = biological target: T1, Cytochrome P450 1A2 (Homo sapiens, UniProt P05177);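 further: PubChem cytochrome P450 panel assay, CYP1A2 panel member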
T1 sequence (P05177 whole entry): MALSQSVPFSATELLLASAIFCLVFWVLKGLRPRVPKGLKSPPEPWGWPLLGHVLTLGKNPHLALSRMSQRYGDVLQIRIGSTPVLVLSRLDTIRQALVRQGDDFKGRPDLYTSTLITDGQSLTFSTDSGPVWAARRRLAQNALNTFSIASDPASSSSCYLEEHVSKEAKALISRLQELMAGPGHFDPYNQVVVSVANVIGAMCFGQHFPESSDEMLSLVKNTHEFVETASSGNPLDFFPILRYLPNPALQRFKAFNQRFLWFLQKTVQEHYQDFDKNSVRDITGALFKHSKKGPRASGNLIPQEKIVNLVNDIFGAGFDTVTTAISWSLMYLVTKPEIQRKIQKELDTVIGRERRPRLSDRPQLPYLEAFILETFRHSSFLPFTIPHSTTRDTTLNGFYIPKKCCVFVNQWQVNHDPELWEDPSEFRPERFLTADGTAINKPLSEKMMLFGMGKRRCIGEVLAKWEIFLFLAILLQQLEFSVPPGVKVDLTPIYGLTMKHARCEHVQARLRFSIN

[2] = biological target: Hepatocyte nuclear factor 4-alpha (Homo sapiens, UniProt P41235); assay type: functional, cell-based;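 further: biochemical luminescence-based dose-response counterscreen measuring inhibition of HNF4 dimerization, run alongside a screen for blockers of ABHD5–perilipin-5 interaction; split luciferase complementation of HNF4 fusion proteins in cell lysate measuring dimerization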
Sequence of Hepatocyte nuclear factor 4-alpha (P41235 whole entry, the tested form may be a part): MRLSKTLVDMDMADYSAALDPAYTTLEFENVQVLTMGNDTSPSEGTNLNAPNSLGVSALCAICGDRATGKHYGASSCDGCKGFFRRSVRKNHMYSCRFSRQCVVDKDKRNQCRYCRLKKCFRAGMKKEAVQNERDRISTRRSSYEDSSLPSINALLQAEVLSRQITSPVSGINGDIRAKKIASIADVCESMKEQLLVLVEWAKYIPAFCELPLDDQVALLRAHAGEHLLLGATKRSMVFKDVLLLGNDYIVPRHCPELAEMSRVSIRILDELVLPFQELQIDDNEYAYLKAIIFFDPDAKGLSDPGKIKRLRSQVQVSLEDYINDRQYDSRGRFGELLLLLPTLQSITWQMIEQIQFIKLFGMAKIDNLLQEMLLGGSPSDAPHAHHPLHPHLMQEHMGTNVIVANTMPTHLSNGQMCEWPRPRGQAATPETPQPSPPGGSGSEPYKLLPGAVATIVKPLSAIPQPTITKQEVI

[3] = biological target: T2, Ubiquitin-conjugating enzyme E2 N (Homo sapiens, UniProt P61088); assay type: functional;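 further: Dose-response confirmation in a TR-FRET assay detecting UBC13-driven polyubiquitin chain formation, inhibition measured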
T2 sequence (P61088 whole entry): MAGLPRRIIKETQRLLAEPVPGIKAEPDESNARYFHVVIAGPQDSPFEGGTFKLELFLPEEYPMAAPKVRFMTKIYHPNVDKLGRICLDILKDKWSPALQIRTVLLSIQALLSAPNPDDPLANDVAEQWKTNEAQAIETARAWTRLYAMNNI

[4] = biological target: T3, Alkaline phosphatase, tissue-nonspecific isozyme (Homo sapiens, UniProt P05186); test: inhibition of tissue-nonspecific alkaline phosphatase – biochemical, dose response (AID 488882); assay type: functional
T3 sequence (P05186 whole entry): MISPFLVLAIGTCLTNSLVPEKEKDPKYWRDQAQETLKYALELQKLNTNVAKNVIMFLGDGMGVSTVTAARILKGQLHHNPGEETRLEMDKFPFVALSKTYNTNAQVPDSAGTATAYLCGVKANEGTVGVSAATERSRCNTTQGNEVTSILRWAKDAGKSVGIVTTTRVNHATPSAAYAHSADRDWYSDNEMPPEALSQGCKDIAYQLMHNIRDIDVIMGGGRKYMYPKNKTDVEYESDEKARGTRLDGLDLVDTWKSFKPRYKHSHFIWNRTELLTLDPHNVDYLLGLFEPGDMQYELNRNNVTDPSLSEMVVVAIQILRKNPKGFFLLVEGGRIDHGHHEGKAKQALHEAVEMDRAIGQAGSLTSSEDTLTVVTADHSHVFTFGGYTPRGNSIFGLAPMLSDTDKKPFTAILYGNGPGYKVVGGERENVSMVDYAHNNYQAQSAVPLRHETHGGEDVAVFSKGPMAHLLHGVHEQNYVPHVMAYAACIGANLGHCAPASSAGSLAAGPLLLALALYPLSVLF

[5] = biological target: T4, DNA repair protein RAD52 homolog (Homo sapiens, UniProt P43351); assay type: functional, biochemical
T4 sequence (P43351 whole entry): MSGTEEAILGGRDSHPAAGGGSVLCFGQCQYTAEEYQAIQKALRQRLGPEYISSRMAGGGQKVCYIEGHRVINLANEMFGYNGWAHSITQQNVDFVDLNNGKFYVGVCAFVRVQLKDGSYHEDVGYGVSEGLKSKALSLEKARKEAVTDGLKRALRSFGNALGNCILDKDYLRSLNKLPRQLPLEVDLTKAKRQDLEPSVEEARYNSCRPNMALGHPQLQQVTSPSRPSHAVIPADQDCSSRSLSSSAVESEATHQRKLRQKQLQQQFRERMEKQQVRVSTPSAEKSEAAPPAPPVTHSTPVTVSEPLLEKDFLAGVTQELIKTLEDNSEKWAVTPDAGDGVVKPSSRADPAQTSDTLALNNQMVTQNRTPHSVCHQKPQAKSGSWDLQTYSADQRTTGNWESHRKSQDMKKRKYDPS

[6] = biological target: T5, Intestinal-type alkaline phosphatase (Homo sapiens, UniProt P09923); test: human IAP inhibitors, dose response, biochemical, luminescent, uHTS hits, set 2 (AID 488793); assay type: functional
T5 sequence (P09923 whole entry): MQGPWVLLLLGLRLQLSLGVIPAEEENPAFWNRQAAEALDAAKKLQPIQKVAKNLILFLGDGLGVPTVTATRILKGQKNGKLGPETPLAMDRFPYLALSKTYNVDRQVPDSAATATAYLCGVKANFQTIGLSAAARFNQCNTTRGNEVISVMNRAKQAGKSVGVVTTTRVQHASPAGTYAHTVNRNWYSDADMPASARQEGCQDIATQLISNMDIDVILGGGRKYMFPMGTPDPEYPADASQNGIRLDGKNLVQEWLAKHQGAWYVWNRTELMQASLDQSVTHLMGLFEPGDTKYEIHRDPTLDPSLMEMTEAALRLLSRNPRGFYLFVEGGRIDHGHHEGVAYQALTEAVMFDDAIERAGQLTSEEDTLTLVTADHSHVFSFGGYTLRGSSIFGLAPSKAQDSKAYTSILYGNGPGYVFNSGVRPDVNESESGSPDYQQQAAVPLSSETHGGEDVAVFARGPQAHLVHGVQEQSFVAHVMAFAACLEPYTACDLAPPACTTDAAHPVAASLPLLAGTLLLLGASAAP

[7] = biological target: T5, Intestinal-type alkaline phosphatase; test: Dose Response confirmation of uHTS hits from a small molecule inhibitors of human intestinal alkaline phosphatase via a luminescent assay. [Related pubchem assays (depositor defined):AID2544, AID2574]; assay type: functional
[8] = biological target: T6, Zinc finger protein mex-5 (Caenorhabditis elegans, UniProt Q9XUB2); test: MEX-5/TCR-2 RNA interaction inhibitors, dose response, biochemical, C. elegans, fluorescence polarization (AID 1960)
T6 sequence (Q9XUB2 whole entry): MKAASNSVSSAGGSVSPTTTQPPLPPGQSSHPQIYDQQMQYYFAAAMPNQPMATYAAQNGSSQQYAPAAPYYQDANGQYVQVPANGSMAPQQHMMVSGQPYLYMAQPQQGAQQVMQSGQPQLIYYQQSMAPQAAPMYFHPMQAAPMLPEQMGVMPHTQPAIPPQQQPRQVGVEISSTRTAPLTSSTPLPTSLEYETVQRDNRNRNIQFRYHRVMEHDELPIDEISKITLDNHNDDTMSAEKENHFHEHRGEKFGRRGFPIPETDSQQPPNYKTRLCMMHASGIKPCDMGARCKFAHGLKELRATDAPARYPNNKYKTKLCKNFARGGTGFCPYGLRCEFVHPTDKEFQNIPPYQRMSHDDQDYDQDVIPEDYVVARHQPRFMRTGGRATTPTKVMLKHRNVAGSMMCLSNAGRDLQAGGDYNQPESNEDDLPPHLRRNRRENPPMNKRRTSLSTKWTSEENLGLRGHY

[9] = tested on: INS1; test: beta cell apoptosis inhibitors, cytokine rescue, dose response, luminescence, retest (AID 449756); assay type: functional, cell-based; conditions: Rattus norvegicus;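 further: cell death triggered by IL-1 beta plus TNF-alpha plus IFN-gamma mixture; protective hits raise ATP signal compared with cytokine alone wells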
[10] = biological target: T7, Intestinal-type alkaline phosphatase (Mus musculus, UniProt P24822); test: PubChem AID 488874; assay type: functional
T7 sequence (P24822 whole entry): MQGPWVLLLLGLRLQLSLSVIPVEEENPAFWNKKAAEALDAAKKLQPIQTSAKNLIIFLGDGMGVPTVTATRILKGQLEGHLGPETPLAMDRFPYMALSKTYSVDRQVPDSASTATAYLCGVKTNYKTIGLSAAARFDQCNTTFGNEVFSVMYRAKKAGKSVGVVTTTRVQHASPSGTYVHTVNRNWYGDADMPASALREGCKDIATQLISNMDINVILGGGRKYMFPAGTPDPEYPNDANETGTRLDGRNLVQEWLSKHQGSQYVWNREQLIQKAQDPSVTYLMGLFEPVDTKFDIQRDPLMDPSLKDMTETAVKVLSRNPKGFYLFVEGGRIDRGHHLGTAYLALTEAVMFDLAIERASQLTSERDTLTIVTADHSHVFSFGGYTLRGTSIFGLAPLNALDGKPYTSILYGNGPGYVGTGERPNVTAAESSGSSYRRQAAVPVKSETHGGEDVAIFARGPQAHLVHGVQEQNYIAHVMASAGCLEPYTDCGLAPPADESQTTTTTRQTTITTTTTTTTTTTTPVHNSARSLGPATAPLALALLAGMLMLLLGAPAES

[11] = biological target: SWI/SNF-related matrix-associated actin-dependent regulator of chromatin subfamily A member 2 (Homo sapiens, UniProt P51531); test: Luminescence-based cell-based high throughput dose response assay to identify activators of the function of SWI/SNF related, matrix associated, actin dependent regulator of chromatin, subfamily a, member 2 (SMARCA2, BRM).; assay type: functional
Sequence of SWI/SNF-related matrix-associated actin-dependent regulator of chromatin subfamily A member 2 (P51531 whole entry): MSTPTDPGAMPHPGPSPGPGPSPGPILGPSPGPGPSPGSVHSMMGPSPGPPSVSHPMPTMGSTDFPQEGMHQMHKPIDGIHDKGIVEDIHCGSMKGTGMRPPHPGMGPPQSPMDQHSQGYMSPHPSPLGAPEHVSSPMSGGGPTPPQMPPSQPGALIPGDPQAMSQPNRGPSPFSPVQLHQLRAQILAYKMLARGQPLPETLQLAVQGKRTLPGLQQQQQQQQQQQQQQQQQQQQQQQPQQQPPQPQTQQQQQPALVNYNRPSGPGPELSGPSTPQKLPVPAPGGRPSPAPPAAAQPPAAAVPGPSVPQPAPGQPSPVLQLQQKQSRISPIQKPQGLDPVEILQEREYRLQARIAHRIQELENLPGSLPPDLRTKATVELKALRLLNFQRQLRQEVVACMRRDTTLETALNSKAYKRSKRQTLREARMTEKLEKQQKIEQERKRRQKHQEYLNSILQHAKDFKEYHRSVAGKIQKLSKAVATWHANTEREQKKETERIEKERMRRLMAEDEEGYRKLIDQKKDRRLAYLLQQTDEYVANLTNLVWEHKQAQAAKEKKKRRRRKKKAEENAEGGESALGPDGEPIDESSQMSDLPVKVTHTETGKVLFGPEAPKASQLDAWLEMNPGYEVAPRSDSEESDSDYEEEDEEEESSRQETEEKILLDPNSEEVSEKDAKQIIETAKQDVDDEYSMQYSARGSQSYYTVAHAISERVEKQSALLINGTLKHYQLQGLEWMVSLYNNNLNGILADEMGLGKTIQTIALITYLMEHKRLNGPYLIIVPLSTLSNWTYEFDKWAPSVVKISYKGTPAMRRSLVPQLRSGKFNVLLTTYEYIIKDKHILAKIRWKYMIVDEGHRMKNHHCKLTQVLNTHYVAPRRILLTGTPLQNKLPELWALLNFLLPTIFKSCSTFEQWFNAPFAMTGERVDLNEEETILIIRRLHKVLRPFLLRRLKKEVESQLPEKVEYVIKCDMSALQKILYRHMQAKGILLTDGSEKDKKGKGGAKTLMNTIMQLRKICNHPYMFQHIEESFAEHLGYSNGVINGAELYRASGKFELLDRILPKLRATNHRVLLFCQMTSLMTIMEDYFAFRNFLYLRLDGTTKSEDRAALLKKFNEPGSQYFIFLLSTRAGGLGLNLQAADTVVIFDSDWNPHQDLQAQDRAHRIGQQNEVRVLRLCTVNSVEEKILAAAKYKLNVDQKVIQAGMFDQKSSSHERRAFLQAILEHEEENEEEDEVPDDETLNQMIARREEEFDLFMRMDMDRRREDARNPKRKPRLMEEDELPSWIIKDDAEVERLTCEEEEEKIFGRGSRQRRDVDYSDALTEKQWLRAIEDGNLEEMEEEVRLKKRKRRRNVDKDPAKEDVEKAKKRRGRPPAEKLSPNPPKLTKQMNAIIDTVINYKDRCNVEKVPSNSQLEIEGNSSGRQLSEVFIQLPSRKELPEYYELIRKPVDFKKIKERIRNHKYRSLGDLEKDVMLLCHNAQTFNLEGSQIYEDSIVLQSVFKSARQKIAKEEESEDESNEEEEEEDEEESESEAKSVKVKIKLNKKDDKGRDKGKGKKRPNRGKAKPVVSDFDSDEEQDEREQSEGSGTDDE

[12] = Counterscreen for activators of the function of SWI/SNF related, matrix associated, actin dependent regulator of chromatin, subfamily a, member 2 (SMARCA2, BRM): Luminescence-based cell-based high throughput dose response assay to identify non-selective compounds using the VP16 reporter assay.; assay type: functional
[13] = cytotoxicity toward NIH3T3 fibroblasts, dose response, counter-screen, cell-based, ATP luminescence, mouse fibroblasts (AID 2010); assay type: functional;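 further: cells exposed to compound for about 90 hours before reading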
[14] = inhibitors of intracellular T. cruzi replication, confirmation, NIH3T3 host cells, beta-gal luminescence (AID 2044); assay type: functional, cell-based;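 further: intracellular parasites grown in NIH/3T3 mouse fibroblasts as host cells; luminescent beta-galactosidase reporter signal from transgenic T. cruzi replicating inside host cells; inhibitors lower the luminescence signal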
[15] = biological target: T8, DNA repair and recombination protein RAD54-like (Homo sapiens, UniProt Q92698); test: inhibitors of human RAD54 branch migration, confirmation, biochemical, fluorescence, cherry-picked samples, dose series (AID 651657); assay type: functional
T8 sequence (Q92698 whole entry): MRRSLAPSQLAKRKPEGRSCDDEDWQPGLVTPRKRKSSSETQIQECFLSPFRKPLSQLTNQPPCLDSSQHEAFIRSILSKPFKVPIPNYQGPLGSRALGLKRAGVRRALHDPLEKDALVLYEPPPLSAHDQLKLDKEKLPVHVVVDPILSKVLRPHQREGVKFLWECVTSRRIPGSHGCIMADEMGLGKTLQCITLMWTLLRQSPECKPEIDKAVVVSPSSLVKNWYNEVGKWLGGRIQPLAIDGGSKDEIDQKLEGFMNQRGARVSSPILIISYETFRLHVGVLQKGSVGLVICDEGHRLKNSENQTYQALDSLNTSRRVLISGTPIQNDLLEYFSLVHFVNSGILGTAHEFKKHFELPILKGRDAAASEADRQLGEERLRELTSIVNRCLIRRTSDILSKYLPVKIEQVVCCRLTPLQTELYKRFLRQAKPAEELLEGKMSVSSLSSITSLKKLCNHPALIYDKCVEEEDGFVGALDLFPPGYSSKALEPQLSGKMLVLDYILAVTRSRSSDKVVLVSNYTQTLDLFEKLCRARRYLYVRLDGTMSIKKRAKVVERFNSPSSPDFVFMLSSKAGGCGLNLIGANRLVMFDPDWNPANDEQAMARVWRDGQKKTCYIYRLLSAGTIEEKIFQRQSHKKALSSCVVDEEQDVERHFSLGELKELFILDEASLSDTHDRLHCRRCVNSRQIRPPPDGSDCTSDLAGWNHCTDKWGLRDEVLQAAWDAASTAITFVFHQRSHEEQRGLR

[16] = biological target: T9, RNA-binding protein pos-1 (Caenorhabditis elegans, UniProt G5EF15); test: inhibitors of POS-1/mex-3 RNA binding, dose response, biochemical, fluorescence polarization (AID 1964);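 further: purified POS-1 fused to maltose binding protein made in E. coli; potency of compounds blocking POS-1 binding to fluorescent RNA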
T9 sequence (G5EF15 whole entry): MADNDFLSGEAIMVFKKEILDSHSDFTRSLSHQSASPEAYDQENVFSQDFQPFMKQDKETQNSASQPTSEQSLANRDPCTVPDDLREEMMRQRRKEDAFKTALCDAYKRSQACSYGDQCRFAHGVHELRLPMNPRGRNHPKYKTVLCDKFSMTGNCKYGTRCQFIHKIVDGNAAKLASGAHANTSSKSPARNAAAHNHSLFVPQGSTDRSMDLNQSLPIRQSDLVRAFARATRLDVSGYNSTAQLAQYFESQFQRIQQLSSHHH

[17] = biological target: T3, Alkaline phosphatase, tissue-nonspecific isozyme; test: TNAP enzyme inhibition by screening hits, dose response, selectivity assay for mouse IAP inhibitor project, biochemical, human TNAP, uHTS hits (AID 488906); assay type: functional
[18] = biological target: Albumin (Bos taurus, UniProt P02769); test: Counterscreen for inhibitors of T-cell receptor (TCR)-CD3 interaction: Fluorescence-based biochemical high throughput dose response assay to identify inhibitors of T-cell receptor (TCR)-CD3 interaction using a TAMRA-labeled BSA probe.; assay type: functional
Sequence of Albumin (P02769 whole entry): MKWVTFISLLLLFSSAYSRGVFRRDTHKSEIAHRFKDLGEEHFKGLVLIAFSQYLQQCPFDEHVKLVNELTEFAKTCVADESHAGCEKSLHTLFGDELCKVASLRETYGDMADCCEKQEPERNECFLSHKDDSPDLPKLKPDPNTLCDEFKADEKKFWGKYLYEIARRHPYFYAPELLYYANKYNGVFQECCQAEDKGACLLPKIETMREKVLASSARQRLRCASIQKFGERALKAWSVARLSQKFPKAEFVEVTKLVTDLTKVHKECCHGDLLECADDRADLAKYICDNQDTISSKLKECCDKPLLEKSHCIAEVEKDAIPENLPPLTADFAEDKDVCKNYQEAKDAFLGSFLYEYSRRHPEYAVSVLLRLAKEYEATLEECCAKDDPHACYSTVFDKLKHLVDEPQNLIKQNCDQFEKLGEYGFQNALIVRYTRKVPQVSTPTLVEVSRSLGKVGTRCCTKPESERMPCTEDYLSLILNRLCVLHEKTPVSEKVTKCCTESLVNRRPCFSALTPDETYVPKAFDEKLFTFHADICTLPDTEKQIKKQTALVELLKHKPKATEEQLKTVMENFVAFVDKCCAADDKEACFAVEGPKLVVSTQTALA

[19] = biological target: T5, Intestinal-type alkaline phosphatase; test: inhibition of human intestinal alkaline phosphatase – biochemical, dose response (AID 488876); assay type: functional
[20] = biological target: FAD-linked sulfhydryl oxidase ALR (Homo sapiens, UniProt P55789); test: inhibitors of human ALR sulfhydryl oxidase, dose response, biochemical, H2O2 detection, luminescence, cherry-pick (AID 493248)
Sequence of FAD-linked sulfhydryl oxidase ALR (P55789 whole entry): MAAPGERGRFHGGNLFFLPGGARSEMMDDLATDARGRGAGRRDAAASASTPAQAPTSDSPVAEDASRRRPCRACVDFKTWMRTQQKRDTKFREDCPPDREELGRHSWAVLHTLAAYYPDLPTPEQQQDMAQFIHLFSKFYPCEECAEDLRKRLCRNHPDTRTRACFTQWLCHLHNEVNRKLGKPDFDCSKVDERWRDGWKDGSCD

[21] = biological target: T7, Intestinal-type alkaline phosphatase; test: PubChem AID 488785; assay type: functional
[22] = biological target: CAAX prenyl protease 1 (Saccharomyces cerevisiae S288c, UniProt P47154); test: Ste24 protease inhibitors, dose response, biochemical, S. cerevisiae, plate reader, cherry-pick (AID 488815)
Sequence of CAAX prenyl protease 1 (P47154 whole entry): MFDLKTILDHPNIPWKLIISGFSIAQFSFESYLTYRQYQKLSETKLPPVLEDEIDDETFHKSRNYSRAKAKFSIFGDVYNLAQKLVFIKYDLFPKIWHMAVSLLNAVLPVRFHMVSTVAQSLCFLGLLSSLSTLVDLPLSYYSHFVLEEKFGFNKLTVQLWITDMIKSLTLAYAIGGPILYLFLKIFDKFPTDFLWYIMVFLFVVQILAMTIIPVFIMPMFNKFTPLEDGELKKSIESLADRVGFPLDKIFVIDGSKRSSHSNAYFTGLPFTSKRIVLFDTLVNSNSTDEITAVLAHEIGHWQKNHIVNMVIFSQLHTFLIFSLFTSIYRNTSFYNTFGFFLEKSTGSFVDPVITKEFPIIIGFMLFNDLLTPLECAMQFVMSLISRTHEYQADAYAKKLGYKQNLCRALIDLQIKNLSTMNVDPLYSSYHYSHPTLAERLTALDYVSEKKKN

[23] = biological target: T10, CAAX prenyl protease 2 (Saccharomyces cerevisiae S288c, UniProt Q03530); assay type: biochemical
T10 sequence (Q03530 whole entry): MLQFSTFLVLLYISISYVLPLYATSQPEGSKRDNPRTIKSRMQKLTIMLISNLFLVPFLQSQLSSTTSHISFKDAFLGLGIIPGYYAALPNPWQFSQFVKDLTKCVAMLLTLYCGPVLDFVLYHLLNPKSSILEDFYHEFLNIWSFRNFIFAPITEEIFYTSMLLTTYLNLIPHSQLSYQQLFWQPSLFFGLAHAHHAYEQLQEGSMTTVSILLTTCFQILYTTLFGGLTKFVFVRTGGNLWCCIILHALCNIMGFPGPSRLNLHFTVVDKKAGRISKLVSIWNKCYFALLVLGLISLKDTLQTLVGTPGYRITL

SMILES: CN1[C@@H]2CC[C@H]1C[C@@H](OC1c3ccccc3CCc3ccccc31)C2 [DEPTROPINE]
AC50 [1]: inactive
IC50 [2]: 10 µM (inactive)
IC50 [3]: > 20 µM (inactive)

SMILES: COc1ccc2nc3cc(Cl)ccc3c(Nc3cc(CN4CCCC4)c(O)c(CN4CCCC4)c3)c2n1
IC50 [4]: 20.3 µM (active)
AC50 [5]: < 0.351 µM (active)
IC50 [6]: 10.5 µM (active)
IC50 [7]: 5.61 µM (active)
EC50 [8]: 22 µM (active)
AC50 [9]: 3.38 µM (active)
IC50 [10]: 40.5 µM (active)
EC50 [11]: > 3.38 µM (active)
EC50 [12]: > 91.2 µM (inactive)
EC50 [13]: > 16 µM (not active)
EC50 [14]: 0.587 µM (active)
AC50 [15]: 0.791 µM (active)
EC50 [16]: 32.2 µM (active)

IC50 [17]: > 100 µM (inactive)
IC50 [18]: > 94 µM (inactive)
IC50 [19]: > 100 µM (inactive)
EC50 [8]: 4.24 µM (active)
AC50 [20]: < 0.005 µM (active)
IC50 [21]: 5.77 µM (active)
EC50 [16]: 24.8 µM (active)
SMILES: O=C(N/N=C/c1cccnc1)c1cc(O)c(O)c(O)c1

AC50 [22]: 12.7 µM (active)
AC50 [23]: 23.3 µM (active)
SMILES: COc1ccc(-c2cc(C(F)(F)F)nc(SCC(=O)N(C)Cc3cn(C)nc3C)n2)cc1OC
